From patent US20170152258A9, “Substituted Pyridopyrazines as Syk Inhibitors” (HUTCHISON MEDIPHARMA LIMITED, priority 2012, published 2017) come the findings set out here.

In one experiment the target is Syk kinase (Homo sapiens, UniProt P43405). The experiment in a line: SYK Enzymatic Assay (Z-LYTE Tyr 2 peptide). It is filed as biochemical. To be noted: 8 concentrations 1 μM down to 0.0003 μM. On the procedure:
Syk kinase assay are performed in vitro using Kit-Tyr 2 Peptide (Invitrogen, Cat. No. PV3191) and in a 384-well assay plate. […] The 384-well assay plate (Corning, Cat. No. 3575) is mixed and incubated at room temperature for 1 hour. 10 μL of the Development Solution (prepared by diluting Development Reagent A (Cat. No. PV3297) to 1/32 with Development Buffer (Cat. No. PV3127)) is then added to each well, mixed and incubated at room temperature for another 1 hour. The reactions are then stopped by adding 10 μL of the Stop Reagent (Invitrogen, Cat. No. PV3094), and the plate is read with Wallac 1420 VICTOR^3 Multilabel Counter (PerkinElmer™) at 445 nm and 520 nm fluorescence. All compounds are tested at 8 concentrations (1 μM down to 0.0003 μM) using a 1:3 serial dilution scheme.

In the next experiment the test system is RBL-2H3 cells. The experiment in a line: IgE-induced Beta-hexosaminidase secretion in RBL-2H3 cells. The note with it: Rattus norvegicus, RBL-2H3, IgE-induced Beta-hexosaminidase secretion, DNP-BSA stimulation. It is filed as cell-based. The method, then:
For the determination of IgE-induced Beta-hexosaminidase secretion, RBL-2H3 cells (SIBS) are seeded in 96 well plates at 4×10^4 cells per well and incubated in MEM media with 15% FBS and Glutamine ([…]) for 4 hours and sensitized with 0.5 ug/ml of SPE-7 overnight. Cells are washed 3 times with Tyrode's buffer and incubated in the presence or absence of various concentrations of the testing compound for 20 min at 37° C., 5% CO2. Cells are stimulated by adding 10 uL of DNP-BSA solution (150 ng/mL) to each well and incubating for 45 minutes at 37° C., 5% CO2. Then, 45 μL of the supernatant is taken and incubated with 100 μL of 1 mM 4-Nitrophenyl N-acetyl-β-D-glucosaminide (Sigma, Cat. No. N9376), which is diluted in 0.05 M citrate buffer (pH 4.5), for 1.5 hr at 37° C. The reactions are quenched by adding 185 μL of 0.05 M sodium carbonate buffer (pH 10.0). Plates are read at 405 nm on Multiskan (MK 3).

Molecules are shown by their SMILES.

As for `COC1CCN(c2ccc(-c3cc4nccnc4c(OC[C@@H]4CN(C(C)=O)CCO4)n3)cc2)CC1` [Compound 48], the IC50 was found to be 87 nM at Syk kinase and 136 nM with RBL-2H3 cells.
For the compound `CC(=O)N1CCO[C@H](COc2nc(-c3ccc(N4CCN(CCO)CC4)cc3)cc3nccnc23)C1` [Compound 49], the IC50 came to 87 nM against Syk kinase and 315 nM in the experiment on RBL-2H3 cells.
The matching figures for `CNc1ccc(-c2cc3nccnc3c(OC[C@@H]3CN(C(=O)[C@H]4CCOC4)CCO3)n2)cc1` [Compound 50]: 64 nM and 108 nM.
The matching figures for `CNc1ccc(-c2cc3nccnc3c(OC[C@@H]3CN(C(=O)[C@H]4CCCO4)CCO3)n2)cc1` [Compound 51]: 94 nM and 159 nM.
Regarding `CNc1ccc(-c2cc3nccnc3c(OC[C@@H]3CN(S(C)(=O)=O)CCO3)n2)cc1F` [Compound 52], the IC50 against Syk kinase is 42 nM; with RBL-2H3 cells, 47 nM.
As to `CN(C)c1ccc(-c2cc3nccnc3c(OC[C@@H]3CN(S(C)(=O)=O)CCO3)n2)cc1F` [Compound 53], the IC50 stood at 32 nM at Syk kinase and 37 nM in the experiment with RBL-2H3 cells.
With `CC(=O)N1CCC(c2ccc(-c3cc4nccnc4c(OC[C@@H]4CN(C(C)=O)CCO4)n3)cc2)CC1` [Compound 54], the IC50 against Syk kinase stood at 73 nM; with RBL-2H3 cells it was 257 nM.
The matching figures for `CNS(=O)(=O)N1CCO[C@H](COc2nc(-c3ccc(N4CCOCC4)cc3)cc3nccnc23)C1` [Compound 55]: 65 nM and 144 nM.
For `CS(=O)(=O)N1CCC(c2ccc(-c3cc4nccnc4c(OC[C@@H]4CN(S(C)(=O)=O)CCO4)n3)cc2)CC1` [Compound 57, (S)-4-(methylsulfonyl)-2-((7-(4-(1-(methylsulfonyl)piperidin-4-yl)phenyl)pyrido[4,3-b]pyrazin-5-yloxy)methyl)morpholine], in that order: 14 nM and 82 nM.
Turning to `CS(=O)(=O)N1CCO[C@H](COc2nc(-c3ccc(C4CCN(CCO)CC4)cc3)cc3nccnc23)C1` [Compound 58, (S)-2-(4-(4-(5-((4-(methylsulfonyl)morpholin-2-yl)methoxy)pyrido[3,4-b]pyrazin-7-yl)phenyl)piperidin-1-yl)ethanol], the IC50 at Syk kinase worked out at 31 nM; in the experiment with RBL-2H3 cells, 990 nM.
Turning to `COCCN1CCC(c2ccc(-c3cc4nccnc4c(OC[C@@H]4CN(S(C)(=O)=O)CCO4)n3)cc2)CC1` [Compound 59], the IC50 against Syk kinase is 30 nM; with RBL-2H3 cells, 117 nM.
On to `O=C(C(F)F)N1CCO[C@H](COc2nc(-c3ccc(N4CCOCC4)cc3)cc3nccnc23)C1` [Compound 61], for which the values for the IC50 against Syk kinase and with RBL-2H3 cells were 27 nM and 29 nM, respectively.
For `NS(=O)(=O)N1CCO[C@H](COc2nc(-c3ccc(N4CCOCC4)cc3)cc3nccnc23)C1` [Compound 62], in that order: 24 nM and 97 nM.
The matching figures for `NC(=O)N1CCO[C@H](COc2nc(-c3ccc(N4CCOCC4)cc3)cc3nccnc23)C1` [Compound 63]: 37 nM and 342 nM.
For `CN1CCN(c2ccc(-c3cc4nccnc4c(OC[C@@H]4CN(S(N)(=O)=O)CCO4)n3)cc2)CC1` [Compound 64], in that order: 20 nM and 487 nM.
Consider `CN(C)CCS(=O)(=O)N1CCO[C@H](COc2nc(-c3ccc(N4CCOCC4)cc3)cc3nccnc23)C1` [Compound 65], for which the IC50 against Syk kinase came to 53 nM; in the experiment with RBL-2H3 cells, 181 nM.
On to `COCCS(=O)(=O)N1CCO[C@H](COc2nc(-c3ccc(N4CCOCC4)cc3)cc3nccnc23)C1` [Compound 66], for which the concentration for half-maximal inhibition (IC50) turned out to be 58 nM on Syk kinase and 230 nM with RBL-2H3 cells.
The matching figures for `CC(=O)N1CCO[C@H](COc2nc(-c3ccc(N(C)C)cc3)cc3nccnc23)C1` [Compound 67]: 52 nM and 89 nM.
For `CC(C)C(=O)N1CCO[C@H](COc2nc(-c3ccc(N(C)C)cc3)cc3nccnc23)C1` [Compound 68], in that order: 63 nM and 110 nM.
Take `CN(C)c1ccc(-c2cc3nccnc3c(OC[C@@H]3CN(C(=O)C4CC4)CCO3)n2)cc1` [Compound 69]: the IC50 at Syk kinase came out at 39 nM; in the experiment with RBL-2H3 cells, 62 nM.
Take `CN(C)c1ccc(-c2cc3nccnc3c(OC[C@@H]3CN(C(=O)CC4CC4)CCO3)n2)cc1` [Compound 70]: the values for the 50% inhibitory concentration (IC50) against Syk kinase and in the experiment on RBL-2H3 cells were 99 nM and 213 nM, respectively.
The matching figures for `CN(C)c1ccc(-c2cc3nccnc3c(OC[C@@H]3CN(C(=O)C4CC(F)(F)C4)CCO3)n2)cc1` [Compound 71]: 127 nM and 335 nM.
For the compound `CN(C)c1ccc(-c2cc3nccnc3c(OC[C@@H]3CN(C(=O)[C@@H]4CCOC4)CCO3)n2)cc1` [Compound 72], the IC50 is 109 nM against Syk kinase and 188 nM with RBL-2H3 cells.
Regarding `CN(C)c1ccc(-c2cc3nccnc3c(OC[C@@H]3CN(C(=O)C4CCOCC4)CCO3)n2)cc1` [Compound 73], the IC50 at Syk kinase was 204 nM; with RBL-2H3 cells it was 142 nM.
For `CN(C)c1ccc(-c2cc3nccnc3c(OC[C@@H]3CN(C(=O)[C@H]4CC[C@H](O)CC4)CCO3)n2)cc1` [Compound 74], in that order: 127 nM and 186 nM.
The matching figures for `CN(C)c1ccc(-c2cc3nccnc3c(OC[C@@H]3CN(C(=O)[C@H]4CC[C@@H](O)CC4)CCO3)n2)cc1` [Compound 75]: 95 nM and 131 nM.
With `CN(C)c1ccc(-c2cc3nccnc3c(OC[C@@H]3CN(C(=O)CC#N)CCO3)n2)cc1` [Compound 76], the IC50 at Syk kinase was 40 nM; in the experiment on RBL-2H3 cells, 88 nM.
The matching figures for `CN(C)c1ccc(-c2cc3nccnc3c(OC[C@@H]3CN(C(=O)CCC#N)CCO3)n2)cc1` [Compound 77]: 85 nM and 202 nM.
For the compound `CN(C)c1ccc(-c2cc3nccnc3c(OC[C@@H]3CN(C(=O)c4cccnc4)CCO3)n2)cc1` [Compound 78], the half-maximal inhibitory concentration (IC50) is 61 nM at Syk kinase and 74 nM in the experiment on RBL-2H3 cells.
`O=S(=O)(C1CC1)N1CCO[C@H](COc2nc(-c3ccc(N4CCOCC4)cc3)cc3nccnc23)C1` [Compound 83]: the IC50 amounted to 74 nM against Syk kinase and 92 nM in the experiment on RBL-2H3 cells.
As for `CN(C)c1ccc(-c2cc3nccnc3c(OC[C@@H]3CN(C(=O)Cc4c[nH]cn4)CCO3)n2)cc1` [Compound 84], the IC50 is 81 nM on Syk kinase and 316 nM in the experiment with RBL-2H3 cells.
For `CN(C)c1ccc(-c2cc3nccnc3c(OC[C@@H]3CN(C(=O)c4ncc[nH]4)CCO3)n2)cc1` [Compound 86], in that order: 110 nM and 616 nM.
For `CN(C)c1ccc(-c2cc3nccnc3c(OC[C@@H]3CN(C(=O)c4cnn(C)c4)CCO3)n2)cc1` [Compound 87], in that order: 60 nM and 200 nM.
With `CCS(=O)(=O)N1CCO[C@H](COc2nc(-c3ccc(N(C)C)cc3)cc3nccnc23)C1` [Compound 88], the IC50 against Syk kinase was determined as 32 nM; with RBL-2H3 cells it was 98 nM.
For `CC(C)S(=O)(=O)N1CCO[C@H](COc2nc(-c3ccc(N(C)C)cc3)cc3nccnc23)C1` [Compound 89], in that order: 96 nM and 207 nM.
The matching figures for `CN(C)c1ccc(-c2cc3nccnc3c(OC[C@@H]3CN(S(=O)(=O)C4CC4)CCO3)n2)cc1` [Compound 90]: 46 nM and 61 nM.

For orientation: IC50 means the concentration at which inhibition is half-maximal. Read a high IC50 as weaker potency.
